# Experimental data: patent publication US12161632B2, “Compositions and methods of treating cardiac fibrosis with ifetroban” (Cumberland Pharmaceuticals Inc., priority 2014, dated 2024)
# Entries after “also recorded” stand apart in the source; their conditions may differ. Read-outs that look alike come from different tables or passages of the source.
# Assays:
# [1] = tested on: RV proteins (TP receptor, MHC, phospho-SMAD2/3, TSP-4); conditions: for TSP-4 protein expression in RV: high dose 25 mg/kg/day
# Description: Mice underwent pulmonary arterial banding (PAB) or sham surgery, and were treated for 2 weeks with vehicle or ifetroban (competitive antagonist of TPα/TPβ) in the drinking water.
# The effect of ifetroban treatment on known fibrotic and anti-fibrotic signaling pathways was examined.
# In another arm of this example, low dose (3 mg/kg/day) ifetroban was administered to mice via the drinking water for 2 weeks following pulmonary artery banding.
# RV gene expression [2] = assay: RV RNA expression arrays in PAB/sham mice (Example V); format: in vivo; conditions: 30 mg/kg/day, 14 days
# Description: (§1) Following sacrifice, right ventricular hypertrophy was assessed in each animal as a percentage of heart weight. A random fraction of the right hearts were fixed in formalin for histology and examined for indices of fibrosis; other hearts were snap frozen for gene expression analysis via RNA microarray. Right hearts and lungs were collected for analysis of protein expression and gene expression array. Left lungs were fixed and stained. Platelet deposition was examined in small pulmonary artery vessels. The remaining organs were harvested and frozen in liquid nitrogen for potential gene expression analysis.
# As part of this study, RNA extracted and expression analysis was performed using Mouse Genone 2.0 Affymetrix expression arrays. (FIG. 4C). The Array design was 2×2×2: Sham/Banded×Vehicle/Ifetroban×M/F. In total, there were 8 arrays; each array was a pool of RV from 3 mice. Only mice with an RVSP>30 were used for the banded groups. Banding itself altered 199 genes (ABS (Diff in averages)—Sum of standard deviations)>0.4 comparing vehicle banded to sham, and expression of 49 of those genes was enhanced by ifetroban (difference >0.4) and expression of 29 of those genes was attenuated by ifetroban (difference >0.4). […] Res., 2011 Jul. […] 15; 45(4):511-8.
# [3] = tested on: pulmonary artery banding (PAB) model of right ventricular pressure overload; assay: PAB model of right ventricular pressure overload: hemodynamics, echocardiography, histology (Example VII); format: in vivo; conditions: PAB mice, low dose 3 mg/kg/day via drinking water, 2 weeks
# [4] = tested on: pulmonary artery banding (PAB) mouse model of pulmonary hypertension; assay: Pulmonary artery banding (PAB) model: cardiovascular phenotyping and histology (Example V); format: in vivo, mice; conditions: 14 days
# Description: Experimental Methods: In this pulmonary artery banding (PAB) animal model, we used wildtype or Rosa26-rtTA2 mice on a normal diet. Mice were anesthetized and subject to either PAB (20 mice) or sham surgery (10 mice) at 4-6 months of age. Following the procedure, the mice were given either ifetroban water at 30 mg/kg/day or normal drinking water, and after 14 days of treatment we performed cardiovascular phenotyping followed by terminal sacrifice, histology and gene expression arrays.
# Echocardiograms to assess cardiac output were obtained the day prior to catheterization and sacrifice. Our standard cardiovascular phenotyping continued with systemic pressure measurement by tail vein cuff, and intrajugular heart catheterization with measurement of right ventricular systolic pressure (RVSP) for peak pressure, diastolic pressure, diastolic time constant, arterial elastance, ejection fraction, and stroke volume.
# as §1
# [5] = tested on: right ventricle under load stress (pulmonary banding); assay: Pulmonary banding load stress model: hemodynamics, heart fibrosis and macrophage infiltration (Example IV); format: in vivo; conditions: banded mice, 25 mg/kg/day in drinking water, 2 weeks
# Description: (§2) FVB/N mice or mice with a GFP macrophage-specific lineage tracing marker (LysM-Cre) underwent pulmonary banding to directly increase load stress (or sham surgery for controls), and starting the following day received either vehicle or the thromboxane receptor antagonist Ifetroban sodium in their drinking water (25 mg/kg/day). After 2 weeks, noninvasive hemodynamics were obtained by transthoracic echocardiography and invasive hemodynamics were obtained by pressure-volume catheterization of the right heart prior to sacrifice. Hearts were assessed for fibrosis and macrophage infiltration. RNA from right ventricles were isolated and used for unbiased discovery of altered gene expression using Affymetrix Mouse Gene 2.0 arrays performed on four groups (banded or sham). LysM-Cre mouse hearts were flash-frozen whole, cross-sectioned, and assessed by microscopy for fibrosis and macrophage infiltration. Differences between groups were assessed by ANOVA and t-tests. Correlations were assessed by Spearman correlation.
# RV gene expression [6] = assay: Gene expression arrays on pooled RV from sham or PAB mice (Example VII); format: in vivo
# Description: To determine the mechanism through which ifetroban reduced fibrosis and protected RV contractility, we performed gene expression arrays on sets of pooled RV from mice with sham or PAB surgery, with and without drug treatment. By principal components analysis strong effect of banding was found, and an effect of ifetroban only in mice that had undergone banding. […] In particular, there were changes in gene expression associated with adhesion, collagen organization, extracellular structure, and developmental processes.
# [7] = tested on: cultured cardiomyocytes given exogenous TGF-ß; assay: TGF-ß signalling in cultured cardiomyocytes (PAI-1 expression, promoter luciferase); format: cell-based; conditions: compared to vehicle-treated cells
# [8] = tested on: right ventricle gene expression; assay: Right ventricle gene expression, Affymetrix Mouse Gene 2.0 arrays (Example IV); format: in vivo, mice; conditions: banded mice, 25 mg/kg/day, 2 weeks
# Description: as §2
# [9] = tested on: pulmonary artery banded wild-type mice; assay: Pulmonary artery banding, two or six weeks of treatment: histology and echocardiography (Example VI); format: in vivo; conditions: PAB mice, 30 mg/kg/day, 6 weeks
# Description: Wild-type mice underwent pulmonary artery banding followed by two weeks or six weeks of treatment with ifetroban (30 mg/kg/day via the drinking water) vs. control (plain drinking water). The pulmonary artery band mimics pulmonary hypertension and right heart failure.
# [10] = PAB mice, 25 mg/kg/day, 2 weeks
# [11] = only in the context of pressure overload
structure (smiles),measurement,setting,value
"CCCCCNC(=O)c1coc([C@H]2[C@@H](Cc3ccccc3CCC(=O)O)[C@@H]3CC[C@H]2O3)n1 [ifetroban, [1S-(1α,2α,3α,4α)]-2-[[3-[4-[(Pentylamino)carbonyl]-2-oxazolyl]-7-oxabicyclo[2.2.1]hept-2-yl]methyl]-benzenepropanoic acid]",TP receptor expression in the RV (Western blot),[1]; 2 weeks following PAB or drug treatment,remained constant
same,phospho-SMAD2/3 associated with PAB,[1]; PAB mice versus vehicle-treated mice,less phospho-SMAD2/3
same,localization of TSP-4 in RV,"[1]; PAB mice, 25 mg/kg/day",increased cardiomyocyte expression of TSP-4
same,α-MHC protein expression in RV (Western blot),[1]; [10],no change in α-MHC expression
same,β-MHC protein expression in RV (Western blot),[1]; [10],strongly induced
same,induction of the pro-fibrotic TGF-beta pathway,"[1]; PAB mice, 2 weeks",blocked induction
same,TSP-4 protein expression in RV,"[1]; PAB mice, 2 weeks, 25 mg/kg/day",increased TSP-4 protein; also recorded: increases the expression of antifibrotic TSP-4
same,TSP-4 protein expression in RV,"[1]; PAB mice, 2 weeks, listed as Ifetroban, 25 mg/kg/day",increased expression of anti-fibrotic thrombospondin-4
same,TSP-4 expression in RV (Western blot densitometry),"[1]; PAB mice, low dose 3 mg/kg/day, 2 weeks",does not
same,number of the 199 banding-altered genes whose expression was attenuated (difference >0.4),RV gene expression [2]; banded RV pools,29 genes
same,number of the 199 banding-altered genes whose expression was enhanced (difference >0.4),RV gene expression [2]; banded RV pools,49 genes
same,expression of FBX032,RV gene expression [2]; banded RV,reduces the expression of FBX032
same,"expression of Nmrk2, Meox1, Nkd2, and Pkhd1",RV gene expression [2]; banded RV,enhances the expression of other genes
same,expression of PDGF,RV gene expression [2]; banded RV,reduces the expression of PDGF
same,"expression of genes involved with inhibition of TGF-Beta, Asporin and Ltbp2",RV gene expression [2]; banded RV,enhanced the expression
same,"expression of genes related to collagen and cell-cell adhesion, particularly thrombospondin-4 (Thbs4)",RV gene expression [2]; banded RV,enhances the expression
same,expression of pro-fibrotic and inflammatory genes,RV gene expression [2]; banded mice,decreases expression
same,expression of pro-muscularization genes,RV gene expression [2]; banded mice,increases expression
same,fibrosis of the right ventricle (histology),[3],does not prevent fibrosis
same,fibrosis in banded right ventricles,[4]; 30 mg/kg/day,decreases fibrosis in banded right ventricles
same,right ventricular systolic pressure (RVSP),"[4]; PAB mice, 30 mg/kg/day in water",did not have an effect
same,ratio of tricuspid E to A wave,"[4]; banded mice, 30 mg/kg/day, p<0.05 unpaired t test",significantly increased
same,"fibrosis in cross-section of the right ventricle (trichrome-stained, 20×)","[4]; sham surgery and banded, 30 mg/kg/day",reduced fibrosis in the right ventricle for both the sham surgery and the banded right ventricle
same,fibrosis (heart),[5],reduction in fibrosis
same,hemodynamic markers of right heart function under load stress,[5],preserved right heart function under load stress
same,recruitment of inflammatory cells,[5],reduction in recruitment of inflammatory cells
same,principal components analysis of RV gene expression,"RV gene expression [6]; 25 mg/kg/day, 2 weeks",strong effect of ifetroban only in mice with banding
same,Thbs4 expression (mRNA),RV gene expression [6]; PAB RV only,strongly enhances
same,expression of antifibrotic genes,RV gene expression [6]; PAB mice,increased expression
same,expression of genes associated with fibrosis,RV gene expression [6]; PAB mice,reduced expression
same,expression of genes associated with myogenic differentiation,RV gene expression [6]; PAB mice versus banded controls,enhanced
same,"RV expression of Cd14, Tlr8 and other pro-inflammatory genes",RV gene expression [6]; [10],decreased RV expression
same,expression of genes associated with inflammatory cell recruitment,RV gene expression [6]; [11],reduced expression
same,genes associated with adaptive remodeling,RV gene expression [6]; [11],ifetroban-induced genes associated with adaptive remodeling
same,gene expression in mice with only sham surgeries,"RV gene expression [6]; sham, 25 mg/kg/day, 2 weeks",did not significantly change gene expression
same,PAI-1 expression or promoter activity,[7],no change
same,"anti-fibrotic pathways (THBS4, Asporin, LTBP2), expression arrays",[8],induction of anti-fibrotic pathways including THBS4 and TGF-beta inhibitors Asporin and LTBP2
same,"pathways related to functional hypertrophy, expression arrays",[8],induction of pathways related to functional hypertrophy
same,"pro-fibrotic pathways (PDGF-D, FBXO32), expression arrays",[8],reduction of pro-fibrotic pathways such as PDGF-D and FBXO32
same,cardiomyocyte diameter in the right ventricle,[9],protected against increases in cardiomyocyte diameter
same,"echocardiography, left ventricular cardiac function (end diastolic/systolic volume, stroke volume, ejection fraction, fractional shortening)",[9],cardiac function values similar to the animals that underwent sham surgery; also recorded: echo values similar to sham surgery animals
same,right ventricular fibrosis,[9],reduced right ventricular fibrosis
